This experiment deals with T1, Human MGAT-2 (Homo sapiens, UniProt Q3SYC2).
T1 construct: made in house; host or cells: Sf9 cells (membrane preparation)
T1 sequence (Q3SYC2 whole entry): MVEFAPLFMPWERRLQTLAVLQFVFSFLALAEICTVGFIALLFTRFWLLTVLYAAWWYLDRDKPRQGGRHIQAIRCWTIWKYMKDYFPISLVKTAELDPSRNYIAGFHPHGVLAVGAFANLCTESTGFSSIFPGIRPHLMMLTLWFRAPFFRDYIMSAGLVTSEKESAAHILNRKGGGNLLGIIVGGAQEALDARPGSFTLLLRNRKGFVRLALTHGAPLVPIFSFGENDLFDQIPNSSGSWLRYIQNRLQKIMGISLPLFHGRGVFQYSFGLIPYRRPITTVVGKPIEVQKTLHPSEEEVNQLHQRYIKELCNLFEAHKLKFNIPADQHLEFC
As to the kind of experiment: MGAT LCMS Assay. Format: biochemical. Particulars: human MGAT2 membranes expressed in Sf9 cells; 100 μM 2-oleoylglycerol, 15 μM oleoyl-coenzyme A; read-out: h-MGAT LCMS IC50. The essentials:
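Robotic enzyme reaction shaken 10 min, quenched with ice-cold methanol containing 1 μg/mL 1,2-distearoyl-rac-glycerol internal standard. Diolein product measured by LC/MS (C8 column, 65° C, APCI(+) triple quad). IC50 derived from diolein/internal standard peak area ratio.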
By IC50 is commonly meant the point on the concentration scale where inhibition reaches its midpoint. As to `CN(C)c1ncc(-c2cc(-c3ccc(OCCCC(F)(F)F)cc3)[nH]c(=O)c2-c2nnn[nH]2)s1` [Example 68, 4-(2-(Dimethylamino)thiazol-5-yl)-3-(1H-tetrazol-5-yl)-6-(4-(4,4,4-trifluorobutoxy)phenyl)pyridin-2(1H)-one], the concentration for half-maximal inhibition (IC50) turned out to be 673 nM.
Turning to `O=c1[nH]c(-c2ccc(OCCCCCC(F)(F)F)cc2F)cc(-c2nn(CC3CC3)cc2Cl)c1-n1nn[nH]c1=O` [Example 169, 4-[4-Chloro-1-(cyclopropylmethyl)-1H-pyrazol-3-yl]-6-{2-fluoro-4-[(6,6,6-trifluorohexyl)oxy]phenyl}-3-(5-oxo-4,5-dihydro-1H-1,2,3,4-tetrazol-1-yl)-1,2-dihydropyridin-2-one], the IC50 was 9 nM.
`CCc1ccc(-c2cc(-c3ccc(CCC4CC4)cc3)[nH]c(=O)c2-c2nn[nH]n2)s1` [Example 145, 6-(4-(2-Cyclopropylethyl)phenyl)-4-(5-ethylthiophen-2-yl)-3-(2H-tetrazol-5-yl)pyridin-2(1H)-one]: the concentration for half-maximal inhibition (IC50) is 10 nM.
In the case of `CCCCCc1ccc(-c2cc(-c3ccc(C)cc3)c(-c3nn[nH]n3)c(=O)[nH]2)cc1` [Example 30, 6-(4-Pentylphenyl)-3-(2H-tetrazol-5-yl)-4-(p-tolyl)pyridin-2(1H)-one], the concentration for half-maximal inhibition (IC50) amounted to 150 nM.
For the compound `O=c1[nH]c(-c2ccc(OCCCCCC(F)(F)F)cc2)cc(-c2ccn(C3CC3)n2)c1-c1nnn[nH]1` [Example 107], the half-inhibitory concentration (IC50) is 99 nM.
For the compound `COc1ccc(NC(=O)c2c(-c3ccc(C(C)(C)C)cc3)cc(-c3ccc(OCCCC(F)(F)F)cc3)[nH]c2=O)cc1` [Example 51, 4-(4-(tert-Butyl)phenyl)-N-(4-methoxyphenyl)-2-oxo-6-(4-(4,4,4-trifluorobutoxy)phenyl)-1,2-dihydropyridine-3-carboxamide], the half-inhibitory concentration (IC50) came out at 417 nM.
Regarding `Cc1ccc(-c2c(F)c(-c3ccc(OCCCCCC(F)(F)F)cc3)[nH]c(=O)c2C(=O)NS(C)(=O)=O)cc1` [Example 117, 5-Fluoro-N-(methylsulfonyl)-2-oxo-4-(p-tolyl)-6-(4-((6,6,6-trifluorohexyl)oxy)phenyl)-1,2-dihydropyridine-3-carboxamide], the IC50 is 29 nM.
On to `O=C(Nc1ccc(OC(F)(F)F)cc1)c1c(-c2cnn(C3CC3)c2)cc(-c2ccc(OCCCC(F)(F)F)cc2)[nH]c1=O` [Example 95, 4-(1-Cyclopropyl-1H-pyrazol-4-yl)-2-oxo-6-(4-(4,4,4-trifluorobutoxy)phenyl)-N-(4-(trifluoromethoxy)phenyl)-1,2-dihydropyridine-3-carboxamide], for which the IC50 amounted to 17 nM.
Regarding `CCOc1ccc(NC(=O)c2c(-c3ccc(C)cc3)c(C)c(-c3ccc(OCCCC(F)(F)F)cc3)[nH]c2=O)cc1` [Example 24, N-(4-Ethoxyphenyl)-5-methyl-2-oxo-4-(p-tolyl)-6-(4-(4,4,4-trifluorobutoxy)phenyl)-1,2-dihydropyridine-3-carboxamide], the half-maximal inhibitory concentration (IC50) stood at 39 nM.
For the compound `CC(C)n1ccc(-c2cc(-c3ccc(OCCCCCC(F)(F)F)cc3)[nH]c(=O)c2-c2nn[nH]n2)n1` [Example 66], the IC50 is 61 nM.
Regarding `Cc1ccc(-c2cc(-c3ccc(C4=CCCCCC4)cc3)[nH]c(=O)c2-c2nnn[nH]2)cc1` [Example 69, 6-(4-(Cyclohept-1-en-1-yl)phenyl)-3-(1H-tetrazol-5-yl)-4-(p-tolyl)pyridin-2(1H)-one], the IC50 is 220 nM.
Consider `CCc1cnc(-c2cc(-c3ccc(CCC4CC4)cc3)[nH]c(=O)c2-c2nn[nH]n2)s1` [Example 149, 6-(4-(2-Cyclopropylethyl)phenyl)-4-(5-ethylthiazol-2-yl)-3-(2H-tetrazol-5-yl)pyridin-2(1H)-one], for which the IC50 came out at 52 nM.
With `CCOc1ccc(NC(=O)c2c(-c3ccc(C)cc3)cc(-c3ccc(OCCCC(F)(F)F)cc3F)[nH]c2=O)cc1` [Example 114, N-(4-Ethoxyphenyl)-6-(2-fluoro-4-(4,4,4-trifluorobutoxy)phenyl)-2-oxo-4-(p-tolyl)-1,2-dihydropyridine-3-carboxamide], the IC50 turned out to be 14 nM.
The same measure for `Cc1ccc(-c2cc(-c3ccc(OCCCCCC(F)(F)F)c(C)c3)[nH]c(=O)c2-c2nnn[nH]2)cc1` [Example 70, 6-(3-Methyl-4-((6,6,6-trifluorohexyl)oxy)phenyl)-3-(1H-tetrazol-5-yl)-4-(p-tolyl)pyridin-2(1H)-one]: 97 nM; for `O=c1[nH]c(-c2ccc(OCCCCCC(F)(F)F)cc2)cc(-c2ccn(CC3CC3)n2)c1-c1nnn[nH]1` [Example 110, 4-(1-(Cyclopropylmethyl)-1H-pyrazol-3-yl)-3-(1H-tetrazol-5-yl)-6-(4-((6,6,6-trifluorohexyl)oxy)phenyl)pyridin-2(1H)-one]: 43 nM; for `O=C(NS(=O)(=O)C1CC1)c1c(-c2ccn(CC3CC3)n2)cc(-c2ccc(OCCCCCC(F)(F)F)cc2C(F)(F)F)[nH]c1=O` [Example 160, N-(Cyclopropanesulfonyl)-4-[1-(cyclopropylmethyl)-1H-pyrazol-3-yl]-2-oxo-6-{4-[(6,6,6-trifluorohexyl)oxy]-2-(trifluoromethyl)phenyl}-1,2-dihydropyridine-3-carboxamide]: 12 nM.
Regarding `Cc1ccc(-c2cc(-c3ccc(OCCCC(F)(F)F)cc3Cl)[nH]c(=O)c2C(=O)Nc2ccc(OC(F)(F)F)cc2)cc1` [Example 132, 6-(2-Chloro-4-(4,4,4-trifluorobutoxy)phenyl)-2-oxo-4-(p-tolyl)-N-(4-(trifluoromethoxy)phenyl)-1,2-dihydropyridine-carboxamide], the IC50 stood at 14 nM.
With `CCOc1ccc(NC(=O)c2c(-c3ccc(C)cc3)cc(-c3cnn(CCCCCC(F)(F)F)c3)[nH]c2=O)cc1` [Example 53, N-(4-Ethoxyphenyl)-2-oxo-4-(p-tolyl)-6-(1-(6,6,6-trifluorohexyl)-1H-pyrazol-4-yl)-1,2-dihydropyridine-3-carboxamide], the IC50 amounted to 267 nM.
As for `CCc1ccc(-c2cc(-c3ccc(OCCCC(F)(F)F)cc3)[nH]c(=O)c2C(=O)NS(=O)(=O)C2CC2)s1` [Example 121], the 50% inhibitory concentration (IC50) came out at 11 nM.
